Experimental data: PubChem BioAssay (NCI)
Where “and” joins values, the source holds several entries; their conditions need not be identical. Equal values may be shown once.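 Compound exposure: 48 hours, 5 concentrations, 96-well plates. At the GI50, growth is halved. TGI denotes the concentration required for complete inhibition of growth.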

Columns and labels:
Assay in all cases: NCI tumour cell line growth inhibition, 48 h
786-0 renal = tested on: 786-0 renal
A498 renal = tested on: A498 renal
A549 NSCLC = tested on: A549 NSCLC
ACHN renal = tested on: ACHN renal
BT-549 breast = tested on: BT-549 breast
CAKI-1 renal = tested on: CAKI-1 renal
CCRF-CEM leukemia = tested on: CCRF-CEM leukemia
COLO 205 colon = tested on: COLO 205 colon
DLD-1 colon = tested on: DLD-1 colon
DMS 114 small cell lung = tested on: DMS 114 small cell lung
DMS 273 small cell lung = tested on: DMS 273 small cell lung
DU-145 prostate = tested on: DU-145 prostate
EKVX NSCLC = tested on: EKVX NSCLC
HCC-2998 colon = tested on: HCC-2998 colon
HCT-116 colon = tested on: HCT-116 colon
HCT-15 colon = tested on: HCT-15 colon
HL-60(TB) leukemia = tested on: HL-60(TB) leukemia
HOP-18 NSCLC = tested on: HOP-18 NSCLC
HOP-62 NSCLC = tested on: HOP-62 NSCLC
HOP-92 NSCLC = tested on: HOP-92 NSCLC
HS 578T breast = tested on: HS 578T breast
HT29 colon = tested on: HT29 colon
IGROV1 ovarian = tested on: IGROV1 ovarian
K-562 leukemia = tested on: K-562 leukemia
KM12 colon = tested on: KM12 colon
KM20L2 colon = tested on: KM20L2 colon
LOX IMVI melanoma = tested on: LOX IMVI melanoma
LXFL 529 NSCLC = tested on: LXFL 529 NSCLC
M14 melanoma = tested on: M14 melanoma
MALME-3M melanoma = tested on: MALME-3M melanoma
MCF7 breast = tested on: MCF7 breast
MDA-MB-231 breast = tested on: MDA-MB-231 breast
MDA-MB-435 = tested on: MDA-MB-435
MOLT-4 leukemia = tested on: MOLT-4 leukemia
NCI-H226 lung = tested on: NCI-H226 lung
NCI-H23 lung = tested on: NCI-H23 lung
NCI-H460 lung = tested on: NCI-H460 lung
NCI-H522 lung = tested on: NCI-H522 lung
NCI/ADR-RES ovarian = tested on: NCI/ADR-RES ovarian
OVCAR-3 ovarian = tested on: OVCAR-3 ovarian
OVCAR-4 ovarian = tested on: OVCAR-4 ovarian
OVCAR-5 ovarian = tested on: OVCAR-5 ovarian
OVCAR-8 ovarian = tested on: OVCAR-8 ovarian
PC-3 prostate = tested on: PC-3 prostate
RPMI-8226 leukemia = tested on: RPMI-8226 leukemia
RXF 393 renal = tested on: RXF 393 renal
SF-268 CNS = tested on: SF-268 CNS
SF-295 CNS = tested on: SF-295 CNS
SF-539 CNS = tested on: SF-539 CNS
SK-MEL-2 melanoma = tested on: SK-MEL-2 melanoma
SK-MEL-28 melanoma = tested on: SK-MEL-28 melanoma
SK-MEL-5 melanoma = tested on: SK-MEL-5 melanoma
SK-OV-3 ovarian = tested on: SK-OV-3 ovarian
SN12C renal = tested on: SN12C renal
SNB-19 CNS = tested on: SNB-19 CNS
SNB-75 CNS = tested on: SNB-75 CNS
SR leukemia = tested on: SR leukemia
SW-620 colon = tested on: SW-620 colon
T-47D breast = tested on: T-47D breast
TK-10 renal = tested on: TK-10 renal
U251 CNS = tested on: U251 CNS
UACC-257 melanoma = tested on: UACC-257 melanoma
UACC-62 melanoma = tested on: UACC-62 melanoma
UO-31 renal = tested on: UO-31 renal
XF 498 CNS = tested on: XF 498 CNS

NC1=NC(=O)N2CC12 (stereo not given)
GI50 (786-0 renal): 160 µM
TGI (786-0 renal): > 100 µM and 506 µM
GI50 (A498 renal): 228 µM
TGI (A498 renal): > 100 µM and 875 µM
GI50 (A549 NSCLC): 890 µM
TGI (A549 NSCLC): > 100 µM and 3450 µM
GI50 (ACHN renal): 347 µM
TGI (ACHN renal): > 100 µM and 1020 µM
GI50 (BT-549 breast): 47.9 µM and 62.6 µM
TGI (BT-549 breast): 166 µM
GI50 (CAKI-1 renal): 35.1 µM
TGI (CAKI-1 renal): > 100 µM and 118 µM
GI50 (CCRF-CEM leukemia): 17.3 µM and 14.3 µM
TGI (CCRF-CEM leukemia): > 100 µM and 58.9 µM and 89.8 µM
GI50 (COLO 205 colon): 278 µM
TGI (COLO 205 colon): > 100 µM and 929 µM
TGI (DLD-1 colon): > 100 µM
TGI (DMS 114 small cell lung): > 100 µM
TGI (DMS 273 small cell lung): > 100 µM
GI50 (DU-145 prostate): 240 µM
TGI (DU-145 prostate): 851 µM
GI50 (EKVX NSCLC): 123 µM
TGI (EKVX NSCLC): > 100 µM and 603 µM
GI50 (HCC-2998 colon): 520 µM
TGI (HCC-2998 colon): > 100 µM and 1250 µM
GI50 (HCT-116 colon): 73.9 µM
TGI (HCT-116 colon): 166 µM
GI50 (HCT-15 colon): 301 µM
TGI (HCT-15 colon): > 100 µM and 1140 µM
GI50 (HL-60(TB) leukemia): 13.7 µM
TGI (HOP-18 NSCLC): > 100 µM
GI50 (HOP-62 NSCLC): 570 µM
TGI (HOP-62 NSCLC): > 100 µM and 1250 µM
GI50 (HOP-92 NSCLC): 70.8 µM
TGI (HOP-92 NSCLC): > 100 µM and 173 µM
GI50 (HS 578T breast): 316 µM
TGI (HS 578T breast): 1720 µM
GI50 (HT29 colon): 400 µM
TGI (HT29 colon): > 100 µM and 3130 µM
GI50 (IGROV1 ovarian): 86.8 µM and 261 µM
TGI (IGROV1 ovarian): > 100 µM and 1100 µM
GI50 (K-562 leukemia): 38.9 µM
TGI (K-562 leukemia): > 100 µM
GI50 (KM12 colon): 436 µM
TGI (KM12 colon): > 100 µM and 1070 µM
TGI (KM20L2 colon): > 100 µM
GI50 (LOX IMVI melanoma): 38.2 µM and 61.2 µM
TGI (LOX IMVI melanoma): > 100 µM and 134 µM
TGI (LXFL 529 NSCLC): > 100 µM
TGI (M14 melanoma): > 100 µM and 273 µM
GI50 (MALME-3M melanoma): 57.8 µM and 79.7 µM
TGI (MALME-3M melanoma): > 100 µM and 202 µM
GI50 (MCF7 breast): 137 µM
TGI (MCF7 breast): 768 µM
GI50 (MDA-MB-231 breast): 107 µM
TGI (MDA-MB-231 breast): 244 µM
GI50 (MDA-MB-435): 90.9 µM and 78 µM
TGI (MDA-MB-435): 194 µM
GI50 (MOLT-4 leukemia): 53.3 µM
TGI (MOLT-4 leukemia): > 100 µM and 185 µM
GI50 (NCI-H226 lung): 184 µM
TGI (NCI-H226 lung): > 100 µM and 896 µM
GI50 (NCI-H23 lung): 737 µM
TGI (NCI-H23 lung): > 100 µM and 2640 µM
GI50 (NCI-H460 lung): 182 µM
TGI (NCI-H460 lung): > 100 µM and 866 µM
GI50 (NCI-H522 lung): 116 µM
TGI (NCI-H522 lung): > 100 µM and 367 µM
GI50 (NCI/ADR-RES ovarian): 168 µM
TGI (NCI/ADR-RES ovarian): 660 µM
GI50 (OVCAR-3 ovarian): 171 µM
TGI (OVCAR-3 ovarian): > 100 µM and 519 µM
GI50 (OVCAR-4 ovarian): 198 µM
TGI (OVCAR-4 ovarian): > 100 µM and 779 µM
GI50 (OVCAR-5 ovarian): 170 µM
TGI (OVCAR-5 ovarian): 528 µM
GI50 (OVCAR-8 ovarian): 141 µM
TGI (OVCAR-8 ovarian): > 100 µM and 5000 µM
GI50 (PC-3 prostate): 86.1 µM and 321 µM
TGI (PC-3 prostate): 1130 µM
TGI (RPMI-8226 leukemia): > 100 µM and 22 µM and 218 µM
TGI (RXF 393 renal): > 100 µM and 334 µM
TGI (SF-268 CNS): > 100 µM and 209 µM
GI50 (SF-295 CNS): 68.6 µM and 73.1 µM
TGI (SF-295 CNS): > 100 µM and 219 µM
TGI (SF-539 CNS): > 100 µM and 206 µM
GI50 (SK-MEL-2 melanoma): 63.3 µM
TGI (SK-MEL-2 melanoma): > 100 µM and 329 µM
TGI (SK-MEL-28 melanoma): > 100 µM and 196 µM
GI50 (SK-MEL-5 melanoma): 638 µM
TGI (SK-MEL-5 melanoma): > 100 µM and 1450 µM
GI50 (SK-OV-3 ovarian): 369 µM
TGI (SK-OV-3 ovarian): > 100 µM and 991 µM
TGI (SN12C renal): > 100 µM and 349 µM
GI50 (SNB-19 CNS): 516 µM
TGI (SNB-19 CNS): > 100 µM and 1120 µM
GI50 (SNB-75 CNS): 240 µM
TGI (SNB-75 CNS): > 100 µM and 822 µM
GI50 (SR leukemia): 10.8 µM and 14.6 µM
TGI (SR leukemia): > 100 µM and 34.8 µM and 73.9 µM
GI50 (SW-620 colon): 48.2 µM and 58.4 µM
TGI (SW-620 colon): > 100 µM and 143 µM
GI50 (T-47D breast): 26.7 µM and 54.5 µM
TGI (T-47D breast): 316 µM
GI50 (TK-10 renal): 65.1 µM and 144 µM
TGI (TK-10 renal): > 100 µM and 389 µM
GI50 (U251 CNS): 154 µM
TGI (U251 CNS): > 100 µM and 620 µM
GI50 (UACC-257 melanoma): 66.6 µM and 85 µM
TGI (UACC-257 melanoma): > 100 µM and 245 µM
GI50 (UACC-62 melanoma): 130 µM
TGI (UACC-62 melanoma): > 100 µM and 408 µM
GI50 (UO-31 renal): 163 µM
TGI (UO-31 renal): > 100 µM and 605 µM
TGI (XF 498 CNS): > 100 µM
